Results on 69 molecules are retold here after patent US8993616B2, “(aza)indole derivative and use thereof for medical purposes” (Kissei Pharmaceutical Co., Ltd., priority 2007, dated 2015).

The structures appear in SMILES notation. pIC50: −log10 of the molar value.

What is called pIC50 is the negative decadic logarithm of the IC50, by convention in mol/L.

Chain of Xanthine oxidase (from bovine milk, Sigma) (P80457 whole entry): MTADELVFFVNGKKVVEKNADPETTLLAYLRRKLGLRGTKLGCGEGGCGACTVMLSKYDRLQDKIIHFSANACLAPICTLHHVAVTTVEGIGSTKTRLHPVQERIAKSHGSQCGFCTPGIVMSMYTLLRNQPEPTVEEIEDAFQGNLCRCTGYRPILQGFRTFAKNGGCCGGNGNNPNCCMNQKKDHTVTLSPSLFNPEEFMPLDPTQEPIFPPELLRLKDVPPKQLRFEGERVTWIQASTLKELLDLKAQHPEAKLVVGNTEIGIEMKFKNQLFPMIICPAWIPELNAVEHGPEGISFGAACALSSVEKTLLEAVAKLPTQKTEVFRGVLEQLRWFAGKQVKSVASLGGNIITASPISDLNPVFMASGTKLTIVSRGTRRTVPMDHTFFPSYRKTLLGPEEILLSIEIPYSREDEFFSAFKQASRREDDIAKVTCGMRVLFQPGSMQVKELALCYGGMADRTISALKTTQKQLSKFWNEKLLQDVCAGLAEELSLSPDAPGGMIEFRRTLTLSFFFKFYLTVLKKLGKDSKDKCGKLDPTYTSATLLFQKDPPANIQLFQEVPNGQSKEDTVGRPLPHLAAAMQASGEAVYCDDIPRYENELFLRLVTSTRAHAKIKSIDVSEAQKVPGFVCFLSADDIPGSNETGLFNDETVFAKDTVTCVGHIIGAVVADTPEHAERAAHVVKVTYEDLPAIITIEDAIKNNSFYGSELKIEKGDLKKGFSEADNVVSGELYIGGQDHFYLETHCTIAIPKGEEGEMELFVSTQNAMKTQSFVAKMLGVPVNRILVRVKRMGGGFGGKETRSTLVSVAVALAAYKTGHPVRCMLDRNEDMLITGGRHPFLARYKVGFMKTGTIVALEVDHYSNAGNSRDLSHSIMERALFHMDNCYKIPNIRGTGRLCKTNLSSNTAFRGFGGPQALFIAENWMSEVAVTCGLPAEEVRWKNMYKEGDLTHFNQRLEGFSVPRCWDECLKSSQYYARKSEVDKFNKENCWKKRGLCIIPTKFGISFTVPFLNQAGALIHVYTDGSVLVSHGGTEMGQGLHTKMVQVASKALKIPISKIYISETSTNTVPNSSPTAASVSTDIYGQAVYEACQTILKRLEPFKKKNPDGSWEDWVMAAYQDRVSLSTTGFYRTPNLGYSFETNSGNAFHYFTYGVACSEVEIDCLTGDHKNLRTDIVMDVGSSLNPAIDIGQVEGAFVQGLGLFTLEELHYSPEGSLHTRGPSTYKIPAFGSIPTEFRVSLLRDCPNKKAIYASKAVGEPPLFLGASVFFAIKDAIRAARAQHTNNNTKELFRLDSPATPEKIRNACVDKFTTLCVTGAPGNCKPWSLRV

This experiment concerns the target Xanthine oxidase (from bovine milk, Sigma) (Bos taurus (Bovine), UniProt P80457). Put plainly: Xanthine oxidase inhibitory activity. It is filed as biochemical. The note with it: xanthine substrate, 10 minutes at room temperature, absorbance at 290 nm. Here is the method:
(1) Preparation of Test Compounds
Test compounds were dissolved in DMSO (Wako) at 40 mM concentration and then diluted to intended concentrations with phosphate-buffered saline (PBS).
(2) Method for Measurement
Xanthine oxidase (from bovine milk, Sigma) was prepared with phosphate-buffered saline (PBS) at 0.02 units/mL, and then the solution was added to 96 well plates at 50 μL/well. In addition, test compounds diluted with PBS were added at 50 μL/well. Xanthine (Wako) at 200 μM prepared with PBS was added at 100 μL/well, and the reaction was conducted for 10 minutes at room temperature. Absorbance at 290 nm was measured using a microplate reader SpectraMax Plus 384 (Molecular device). The absorbance under a condition without xanthine is 0%, and control without test compounds is 100%. Fifty % inhibitory concentration of a test compound (IC50) was calculated (Table 60). Ex. No in the table indicates Example number.
Take `N#Cc1cn(-c2ccc(C(=O)O)cc2)c2cc(OCCO)ccc12` [Example 186]: the negative logarithm of the IC50 (pIC50) is 7.30. The value for `CCCCOc1ccc2c(C#N)cn(-c3ccc(C(=O)O)c(O)c3)c2c1` [Example 221] was 7.15; that for `N#Cc1cn(-c2ccc(C(=O)O)cc2)c2ccc(OCc3ccsc3)cc12` [Example 176] was 7.74. The result for `N#Cc1cn(-c2ccc(C(=O)O)c(O)c2)c2c(F)cccc12` [Example 318] reads 7.92. The result for `N#Cc1cn(-c2ccc(C(=O)O)c(N)c2)c2ccccc12` [Example 42, 2-Amino-4-(3-cyanoindol-1-yl)benzoic acid] reads 6.76; that for `N#Cc1cn(-c2ccc(C(=O)O)cc2)c2ccc(OCCOc3ccccc3)cc12` [Example 154], 7.72; that for `N#Cc1cn(-c2ccc(C(=O)O)cc2)c2ccc(-c3ccccc3)cc12` [Example 150], 7.69.

With `N#Cc1cn(-c2ccc(C(=O)O)c(O)c2)c2ccc(O)cc12` [Example 201], the negative logarithm of the IC50 (pIC50) is 8.26. The molecule `N#Cc1cn(-c2ccc(C(=O)O)cc2)c2ccc(-c3cccs3)cc12` [Example 158] gave a pIC50 of 8.02. The value for `Cc1cc2c(C#N)cn(-c3ccc(C(=O)O)cn3)c2cc1F` [Example 307] was 7.89. The result for `N#Cc1cn(-c2ccc(C(=O)O)c(O)c2)c2cc(OCCNC(=O)OCc3ccccc3)ccc12` [Example 8, 4-[6-(2-Benzyloxycarbonylaminoethyloxy)-3-cyanoindol-1-yl]-2-hydroxybenzoic acid] reads 7.38; that for `N#Cc1cn(-c2ccc(C(=O)O)c(O)c2)c2cc(Cl)ccc12` [Example 190], 8.27.

Molecule `COCCNC(=O)c1ccc2c(c1)c(C#N)cn2-c1ccc(C(=O)O)cc1` [Example 162] gave a negative logarithm of the IC50 (pIC50) of 7.78. The result for `N#Cc1cn(-c2ccc(C(=O)O)cc2)c2ccc(-c3ccncc3)cc12` [Example 159] reads 7.84. `N#Cc1cn(-c2ccc(C(=O)O)c(O)c2)c2cc(OCC3CC3)ccc12` [Example 233]: the negative-log IC50 (pIC50) was 8.14. The result for `COc1ccc2c(C#N)cn(-c3ccc(C(=O)O)c(O)c3)c2c1` [Example 217] reads 8.22; that for `CC(C)Oc1ccc2c(C#N)cn(-c3ccc(C(=O)O)c(O)c3)c2c1` [Example 224], 8.01.

Consider `CC(C)Oc1cc2c(C#N)cn(-c3ccc(C(=O)O)cc3)c2cc1F` [Example 303], for which the negative-log IC50 (pIC50) is 8.00. The value for `N#Cc1cn(-c2ccc(C(=O)O)c(O)c2)c2cc(OCc3ccc(Cl)cc3)ccc12` [Example 232] was 7.37; that for `CCOCCOc1ccc2c(C#N)cn(-c3ccc(C(=O)O)c(O)c3)c2c1` [Example 219] was 8.08; that for `N#Cc1cn(-c2ccc(C(=O)O)c(O)c2)c2cc(OCCCCO)ccc12` [Example 229] was 8.15. The value for `Cc1cc2c(cc1OCc1ccccc1)c(C#N)cn2-c1ccc(C(=O)O)cc1` [Example 149] was 7.42; that for `N#Cc1cn(-c2ccc(C(=O)O)c(O)c2)c2ccc(OCCO)cc12` [Example 210] was 8.15. `CCOc1ccc2c(c1)c(C#N)cn2-c1ccc(C(=O)O)c(O)c1` [Example 214] gave a pIC50 of 7.96. The value for `CC(C)Oc1ccc2c(c1)c(C#N)cn2-c1ccc(C(=O)O)c(O)c1` [Example 209] was 7.96; that for `N#Cc1cn(-c2ccc(C(=O)O)cc2)c2ccc(-c3ccc(O)c(Cl)c3)cc12` [Example 179] was 8.10.

`CC(C)COc1ccc2c(c1)c(C#N)cn2-c1ccc(C(=O)O)c(O)c1` [Example 205]: the pIC50 is 7.56.

On to `N#Cc1cn(-c2ccc(C(=O)O)c(O)c2)c2cc(OCCCN)ccc12` [Example 227], for which the negative-log IC50 (pIC50) is 7.98. The result for `N#Cc1cn(-c2ccc(C(=O)O)c(O)c2)c2cc(OCc3ccccc3Cl)ccc12` [Example 230] reads 7.17. The result for `COCCOc1ccc2c(C#N)cn(-c3ccc(C(=O)O)cc3)c2c1` [Example 185] reads 7.40; that for `N#Cc1cn(-c2ccc(C(=O)O)c(O)c2)c2ccc(OCC(=O)O)cc12` [Example 213], 8.14; that for `N#Cc1cn(-c2ccc(C(=O)O)cc2)c2ccc(OCc3cccs3)cc12` [Example 27, 4-[3-Cyano-5-(thiophen-2-ylmethyloxy)indol-1-yl]benzoic acid], 7.84. For the molecule `N#Cc1cn(-c2ccc(C(=O)O)c(O)c2)c2cc(-c3ccccc3)ccc12` [Example 199], the negative-log IC50 (pIC50) was 7.31.

In turn, `CC(C)(C)OC(=O)NCCCOc1ccc2c(c1)c(C#N)cn2-c1ccc(C(=O)O)cc1` [Example 180] gave a pIC50 of 7.54.

In the case of `CN(C)c1cc2c(C#N)cn(-c3ccc(C(=O)O)cc3)c2cc1C(F)(F)F` [Example 300], the pIC50 was 7.02. The value for `COCCOc1ccc2c(C#N)cn(-c3ccc(C(=O)O)c(O)c3)c2c1` [Example 215] was 7.98; that for `Cc1nc(-n2cc(C#N)c3ccccc32)sc1C(=O)O` [Example 47, 2-(3-Cyanoindol-1-yl)-4-methylthiazole-5-carboxylic acid] was 7.23.

`COCCOc1ccc2c(c1)c(C#N)cn2-c1ccc(C(=O)O)cc1` [Example 153]: the negative logarithm of the IC50 (pIC50) is 7.91. As for `CN(C)CCCOc1ccc2c(c1)c(C#N)cn2-c1ccc(C(=O)O)cc1` [Example 177], the negative-log IC50 (pIC50) was 7.79.

Consider `N#Cc1cn(-c2ccc(C(=O)O)cc2)c2ccc(OCCCO)cc12` [Example 172], for which the pIC50 is 8.10. The value for `N#Cc1cn(-c2ccc(C(=O)O)c(O)c2)c2ccc(Cl)cc12` [Example 197] was 8.05. The result for `CS(=O)(=O)c1ccc(-c2ccc3c(c2)c(C#N)cn3-c2ccc(C(=O)O)cc2)cc1` [Example 167] reads 7.96.

On to `CN(C)C(=O)c1ccc2c(c1)c(C#N)cn2-c1ccc(C(=O)O)cc1` [Example 34, 4-(3-Cyano-5-dimethylaminocarbonylindol-1-yl)benzoic acid], for which the negative logarithm of the IC50 (pIC50) is 7.32.

In the case of `N#Cc1cn(-c2ccc(C(=O)O)c(O)c2)c2cccc(OCc3ccccc3)c12` [Example 202], the pIC50 was 7.21.

The molecule `CN(C)c1ccc(-c2ccc3c(c2)c(C#N)cn3-c2ccc(C(=O)O)cc2)cc1` [Example 165] gave a pIC50 of 6.95. The value for `N#Cc1ccc2c(C#N)cn(-c3ccc(C(=O)O)c(O)c3)c2c1` [Example 207] was 8.14; that for `COc1cc2c(C#N)cn(-c3ccc(C(=O)O)cc3)c2cc1F` [Example 287] was 7.80. The result for `CS(=O)(=O)c1ccc(COc2ccc3c(c2)c(C#N)cn3-c2ccc(C(=O)O)cc2)cc1` [Example 178] reads 7.89; that for `N#Cc1cn(-c2ccc(C(=O)O)cc2)c2ccc(OCCCN)cc12` [Example 181], 7.76. `Cc1ccc2c(c1)c(C#N)cn2-c1ccc(C(=O)O)cn1` [Example 143] gave a negative logarithm of the IC50 (pIC50) of 7.61. The result for `N#Cc1ccc2c(c1)c(C#N)cn2-c1ccc(C(=O)O)c(O)c1` [Example 206] reads 8.14; that for `CC(=O)c1ccc(-c2ccc3c(c2)c(C#N)cn3-c2ccc(C(=O)O)cc2)cc1` [Example 166], 8.14.

`N#Cc1cccc2c1c(C#N)cn2-c1ccc(C(=O)O)c(O)c1` [Example 208] had a negative-log IC50 (pIC50) of 8.22. The result for `N#Cc1cn(-c2ccc(C(=O)O)cc2)c2cc(CO)ccc12` [Example 184] reads 6.86; that for `CS(=O)(=O)NCCCOc1ccc2c(C#N)cn(-c3ccc(C(=O)O)c(O)c3)c2c1` [Example 240], 8.01; that for `CN(C)CCCOc1ccc2c(C#N)cn(-c3ccc(C(=O)O)c(O)c3)c2c1` [Example 226], 8.00. The result for `N#Cc1cn(-c2ccc(C(=O)O)cc2)c2ccc(OCC(=O)O)cc12` [Example 170] reads 7.70; that for `N#Cc1cn(-c2ccc(C(=O)O)c(O)c2)c2cc(OCc3ccccc3)ccc12` [Example 5, 4-(6-Benzyloxy-3-cyanoindol-1-yl)-2-hydroxybenzoic acid], 7.47; that for `COc1cccc(-c2ccc3c(c2)c(C#N)cn3-c2ccc(C(=O)O)cc2)c1` [Example 156], 7.92. The value for `COCCOc1ccc2c(c1)c(C#N)cn2-c1ccc(C(=O)O)c(O)c1` [Example 211] was 8.21; that for `COc1c(C)cc2c(c(C#N)cn2-c2ccc(C(=O)O)cc2)c1C` [Example 288] was 8.00; that for `N#Cc1cn(-c2ccc(C(=O)O)c(O)c2)c2cc(OCCO)ccc12` [Example 218] was 8.22. `CN(Cc1ccccc1)C(=O)c1ccc2c(c1)c(C#N)cn2-c1ccc(C(=O)O)cc1` [Example 161] gave a pIC50 of 7.30. The value for `CCCOc1ccc2c(C#N)cn(-c3ccc(C(=O)O)c(O)c3)c2c1` [Example 220] was 8.03; that for `N#Cc1cn(-c2ccc(C(=O)O)c(O)c2)c2ccc(-c3ccccc3)cc12` [Example 198] was 7.26. The value for `CC(=O)NCCOc1ccc2c(C#N)cn(-c3ccc(C(=O)O)c(O)c3)c2c1` [Example 12, 4-[6-(2-Acetylaminoethyloxy)-3-cyanoindol-1-yl]-2-hydroxybenzoic acid] was 8.15; that for `N#Cc1cn(-c2ccc(C(=O)O)cc2)c2ccc(C(=O)NCc3ccccc3)cc12` [Example 160] was 7.95. The value for `CS(=O)(=O)Nc1ccc(-c2ccc3c(c2)c(C#N)cn3-c2ccc(C(=O)O)cc2)cc1` [Example 183] was 8.12; that for `N#Cc1cn(-c2ccc(C(=O)O)cc2)c2ccc(OCc3ccccc3)cc12` [Example 151] was 7.65.
